System: RKN J2
Assay: RKN J2 dispersal away from the pheromone application site
Type: in vivo, Meloidogyne spp.
Details: for activity as a repellent (in words): single ascarosides vs presented together
Description: FIG. 2. RKN J2 responds to pheromones purified from S. carpocapsae growth medium within 2 hours. The 57% MeOH extraction only contains one pheromone, ascr #10, which is also secreted by RKN. […] The 73% MeOH extraction includes both ascr #10 and ascr #18. Both of these pheromones are released by RKN J2. We can already see a synergy and recognition and 15% more J2 left the pheromone application spot due to recognition of the pheromone signals. […] The figure is representative of the 2 independent experiments repeated in time and each experiment has 6 independent replications.
FIG. 3. RKN J2 response to pheromones extracted from S. feltiae growth medium within 2 h of exposure. Control has only water. Pheromones resuspended in water. The experiment has 5 independent replications.
We extracted the pheromones with 58% and 73% Methyl alcohol using S. carpocapsae insect host cadavers, the growth medium for S. carpocapsae. Then the extracts were dried and re-suspended in MILLIQ water. Centrifuged at 6000 r.c.f. to remove insoluble material and then dried using a speed vac. […] This particular fraction only included one ascaroside, ascr #10, common between RKN and S. carpocapsae. […] The 73% MeOH extract contained two common pheromones, ascr #10 and ascr #18, between RKN and S. carpocapsae. The two pheromones together caused 15% more RKN J2 to move away from the application site compared to water control.
We tested this with one more Steinernema species growth medium. We extracted the pheromones using 70% MeOH from the S. feltiae growth medium (insect host cadavers). This particular extraction contains the two common ascarosides, ascr #10 and ascr #18, between RKN and Steinernema species.
Since ascr #10 and […] are the only common ascarosides between Steinernema and RKN species, we looked at other species that release ascarosides that RKN J2 release.

In the case of C[C@H](CCCCCCCCC(=O)O)O[C@@H]1O[C@@H](C)[C@H](O)C[C@H]1O [ascr #18], the “activity as a repellent (in words)” value is reported as “not active”.

With C[C@H](CCCCCCC(=O)O)O[C@@H]1O[C@@H](C)[C@H](O)C[C@H]1O [ascr #10] the “RKN J2 response to pheromones (in words)” value (RKN J2, within 2 hours, vs water control) was “did not elicit any response” and the “activity as a repellent (in words)” value was “not active”.
